Measured values published in patent publication US6335339B1, “Triazine antiviral compounds” (Scriptgen Pharmaceuticals, Inc., priority 1998, dated 2002).

Tested on: HBV εRNA
Test: εRNA/oligonucleotide hybridization inhibition assay with rRNA competitor
Assay type: binding, Hepatitis B virus
Conditions: for IC50: radiolabeled εRNA, 60-fold excess rRNA competitor; for Specificity: ratio RRE+rRNA IC50/εRNA+rRNA IC50, max = inactive in RRE assay
Description: One assay used in determining the activity of the compounds of the present invention is disclosed in copending U.S. patent application Ser. No. 08/709,342, filed Sep. 6, 1996, the disclosure of which is hereby incorporated herein by reference in its entirety. The assay detects the interaction between target RNA molecule and a test ligand by measuring the ligand's ability to inhibit hybridization between the RNA and a specific complementary oligonucleotide. In one embodiment, the target RNA is radiolabelled and the oligonucleotide is labeled with biotin; in this case, the extent of hybridization is determined by measuring the amount of radiolabeled RNA detected with a streptavidin/biotin-based capture system.
Concentrations of test compounds of between about 0.1 μM and about 200 μM are assayed for inhibition using radiolabeled εRNA in the absence or presence of a large excess of an unlabeled non-specific RNA competitor (such as, e.g., ribosomal RNA, rRNA). Compounds that bind εRNA non-specifically are competitively displaced by the rRNA, resulting in reduced or no inhibition of hybridization between the radiolabeled εRNA and the biotinylated oligonucleotide. Conversely, the inhibitory activity of compounds that specifically bind εRNA is not affected by the presence of the competitor rRNA.
The high throughput assays were performed in 96-well plates containing eighty drugs (5 μl, 60 μg/ml in DMSO) distributed one per well in columns 2-6 and 8-12 of the 8×12 96-well array. The remaining 16 wells in columns 1 and 7 were filled with 5 μl DMSO to serve as the control reactions. 45 μl of reaction mixture containing buffer, salts and radiolabeled target RNA were delivered on each well of the compound-containing plates to yield a 50 μl mixture containing 50 mM Tris-HCl, pH 7.5, 200 mM KCl, 5 mM MgCl2, 5 mM DTT, 6 μg/ml test compound, and 25 nM [^32 P]-labeled εRNA. The reaction was started by addition of the biotinylated oligonucleotide, 262.104 A (5 μl) to a final concentration of 100 nM. The reaction was incubated at 25° C. for 60 minutes, and then 5 μl of 0.3 mg/ml SAAP (streptavidin alkaline phosphatase conjugate, Pierce, Rockford, Ill.) was added. The reaction was incubated for an additional 30 minutes at 25° C. and filtered through 96-well format HATF nitrocellulose filters (Millipore, Bedford, Mass.) using a multiscreen vacuum manifold (Millipore, Bedford, Mass.). Subsequently, 300 μl of wash buffer (50 mM Tris-HCl, pH 7.5, 200 mM KCl) was filtered through to wash the filters. The filters were dried and supplemented with 20 μl scintillation fluid (Super Mix, Wallac Oy, Turku, Finland). The amount of hybrids formed was determined by scintillation counting of the radiolabeled εRNA retained on the filters.
The inhibitory effect of a test compound (expressed as percentage of inhibition, % Inh.) was calculated using the following formula: […]
where Ro is the average retention of hybrids in the 16 identical control reactions in columns 1 and 7 and Rx is the hybrids retained in the presence of a test drug, x.
Biotinylated oligonucleotides 262.104 A (5′-biotin-TTAGGCACAGCTTGGAGGCTTGAACAGTG-3′) and 208.92 A (5′-biotin-CGTCATTGACGCTGCGCCCA-3′) were synthetically prepared (Oligos Etc., Willsonville, Oreg.). These oligonucleotides are complementary to regions of the εRNA and RRE RNA targets, respectively.
A plasmid containing the target sequence following the bacteriophage SP6 promoter was used as a template for the synthesis of radiolabeled εRNA using [α^32 P]-UTP and SP6 RNA polymerase as described by the suppliers, e.g., Ambion, Austin, Tex., and by methods well known to those of ordinary skill in the art.
Compounds that inhibited the primary screening assay described above were individually titrated in the same assay at concentrations between 0.1 μM and 200 μM in the absence and presence of 60-fold excess rRNA as a non-specific competitor. […]

SMILES | IC50 | Specificity
CCCCN(CCCC)c1nc(NN=Cc2ccc([N+](=O)[O-])cc2)nc(Nc2ccc([N+](=O)[O-])cc2)n1 [Compound 5] | 49.3 µM | max.
Cc1[nH]c2ccccc2c1C=NNc1nc(Nc2ccccc2)nc(Nc2ccc([N+](=O)[O-])cc2)n1 [Compound 6] | 10.4 µM | max.
Cc1ccc(Nc2nc(NN=Cc3ccccc3)nc(Nc3ccccc3)n2)c(C)c1 [Compound 7] | 2.4 µM | max.
CCCCN(CCCC)c1nc(N/N=C/c2cc(I)cc(I)c2O)nc(Nc2ccc([N+](=O)[O-])cc2)n1 [Compound 8] | 4 µM | max.
Cc1ccc(Nc2nc(NN=Cc3ccc(O)cc3O)nc(Nc3ccc([N+](=O)[O-])cc3)n2)cc1C [Compound 9] | 6.2 µM | 132.6
Cc1ccccc1Nc1nc(NN=Cc2ccc(I)cc2)nc(Nc2ccc([N+](=O)[O-])cc2)n1 [Compound 10] | 12 µM | max.
CCCCN(CCCC)c1nc(NN=Cc2ccc3c(c2)OCO3)nc(Nc2ccc([N+](=O)[O-])cc2)n1 [Compound 11] | 15 µM | max.
Cc1ccc(Nc2nc(NN=Cc3ccccc3O)nc(Nc3ccc([N+](=O)[O-])cc3)n2)cc1C [Compound 12] | 2.6 µM | max.
CCN(CC)c1nc(NN=Cc2ccc([N+](=O)[O-])cc2)nc(Nc2ccccc2)n1 [Compound 13] | 4.9 µM | max.
COc1c(Br)cc(Br)cc1C=NNc1nc(Nc2ccccc2)nc(N2CCCCC2)n1 [Compound 14] | 7.1 µM | max.
Cc1ccc(C=NNc2nc(Nc3ccc([N+](=O)[O-])cc3)nc(Nc3ccccc3C)n2)cc1 [Compound 15] | 11 µM | max.
CCCCN(CCCC)c1nc(NN=Cc2ccc(Cl)cc2)nc(Nc2ccc([N+](=O)[O-])cc2)n1 [Compound 16] | 12.1 µM | max.
CC(C=NNc1nc(Nc2ccc([N+](=O)[O-])cc2)nc(Nc2ccc(C)c(C)c2)n1)=Cc1ccccc1 [Compound 19] | 9.9 µM | max.
COc1ccc(Nc2nc(NN=Cc3ccc(OC)cc3OC)nc(Nc3ccccc3)n2)cc1 [Compound 20] | 11.7 µM | max.
FC(F)(F)c1cccc(Nc2nc(Nc3ccccc3)nc(N3CCOCC3)n2)c1 [Compound 21] | 14.4 µM | max.
COc1ccc(Nc2nc(NN=Cc3ccc(Cl)cc3)nc(Nc3ccccc3)n2)cc1 [Compound 22] | 3.6 µM | max.
CCCCN(CCCC)c1nc(NN=Cc2ccc(OCC)c(O)c2)nc(Nc2ccc([N+](=O)[O-])cc2)n1 [Compound 23] | 5.7 µM | max.
O=[N+]([O-])c1ccc(Nc2nc(NCc3ccccc3)nc(NN=Cc3ccccc3)n2)cc1 [Compound 24] | 10 µM | max.
Cc1ccc(Nc2nc(NN=Cc3ccccc3)nc(Nc3ccccc3)n2)cc1 [Compound 25] | 11.9 µM | max.
CCN(CC)CCNc1ccc2c3c(cccc13)C(=O)N(Nc1nc(NCc3ccccc3)nc(N(CC)CC)n1)C2=O [Compound 27] | 15.5 µM | max.
COc1ccc(Br)cc1/C=N/Nc1nc(Nc2cccc([N+](=O)[O-])c2)nc(N2CCOCC2)n1 [Compound 28] | 18.9 µM | max.
Cc1ccccc1Nc1nc(NN=Cc2ccc3c(c2)OCO3)nc(Nc2ccc([N+](=O)[O-])cc2)n1 [Compound 29] | 24.8 µM | max.
Cc1ccc(Nc2nc(NN=Cc3cccc(I)c3)nc(Nc3ccccc3)n2)cc1 [Compound 30] | 25 µM | max.

SMILES | IC50 | Specificity
Oc1ccc(I)cc1C=NNc1nc(NCc2ccccc2)nc(Nc2ccccc2)n1 [Compound 33] | 37.2 µM | max.
Oc1c(Br)cc(Cl)cc1/C=N/Nc1nc(Nc2cccc(C(F)(F)F)c2)nc(N2CCOCC2)n1 [Compound 34] | 21 µM | max.
CCCCN(CCCC)c1nc(NN=Cc2cccc(Cl)c2)nc(Nc2ccc([N+](=O)[O-])cc2)n1 [Compound 35] | 24.9 µM | max.
Cc1ccc(Nc2nc(NN=Cc3ccc(I)cc3)nc(Nc3ccccc3)n2)c(C)c1 [Compound 113] | 33.1 µM | 9.1
O=[N+]([O-])c1ccc(Nc2nc(NN=Cc3ccc(Br)cc3)nc(N3CCCCCC3)n2)cc1 [Compound 117] | 15.6 µM | max.
FC(F)(F)c1cccc(Nc2nc(NN=Cc3ccc(Cl)cc3)nc(N3CCOCC3)n2)c1 [Compound 120] | 46 µM | 24.1
C(=Cc1ccccc1)C=NNc1nc(Nc2ccccc2)nc(Nc2ccccc2)n1 [Compound 125] | 35.1 µM | 28.5
CCN(CC)c1nc(NCc2ccccc2)nc(N/N=C/c2ccccc2O)n1 [Compound 155, 2-hydroxybenzaldehyde N-[4-(benzylamino)-6-(diethylamino)-1,3,5-triazin-2-yl]hydrazone] | 25.5 µM | max.
COc1ccc(Nc2nc(NN=Cc3ccc(O)cc3O)nc(Nc3ccccc3)n2)cc1 [Compound 158] | 7.4 µM | max.
Cc1ccc(Nc2nc(NN=Cc3cc(I)ccc3O)nc(Nc3ccccc3)n2)c(C)c1 [Compound 159] | 2.7 µM | max.
Oc1ccc(Cl)cc1C=NNc1nc(Nc2ccc3ccccc3c2)nc(N2CCOCC2)n1 [Compound 160] | 9.5 µM | 44.2
COc1c(C=NNc2nc(NCc3ccccc3)nc(Nc3ccccc3)n2)cccc1[N+](=O)[O-] [Compound 162] | 11.7 µM | max.
Brc1cccc(C=NNc2nc(Nc3ccccc3)nc(N3CCOCC3)n2)c1 [Compound 163] | 99 µM | max.
COc1ccc(Nc2nc(NN=Cc3ccc(O)cc3O)nc(N3CCOCC3)n2)cc1 [Compound 164] | 48 µM | max.
COc1ccc(C=NNc2nc(NCc3ccccc3)nc(Nc3ccccc3)n2)cc1 [Compound 165] | 18.8 µM | max.
Ic1cccc(C=NNc2nc(Nc3ccc4ccccc4c3)nc(N3CCOCC3)n2)c1 [Compound 166] | 36.3 µM | max.
Oc1ccc2ccccc2c1C=NNc1nc(Nc2cccc3ccccc23)nc(N2CCOCC2)n1 [Compound 167] | 50.9 µM | max.
COc1c(C=NNc2nc(Nc3ccccc3)nc(Nc3ccccc3)n2)ccc(Br)c1O [Compound 168] | 19.7 µM | max.
Oc1ccccc1C=NNc1nc(Nc2ccccc2)nc(N2CCCCC2)n1 [Compound 169] | 15.4 µM | max.
COc1cccc(C=NNc2nc(Nc3ccccc3)nc(N3CCCC3)n2)c1O [Compound 170] | 6.2 µM | 119.3
CCN(CC)c1nc(NN=Cc2c(O)ccc3ccccc23)nc(Nc2ccccc2)n1 [Compound 171] | 9.4 µM | max.
Cc1cccc(C(=O)Oc2ccc(C=NNc3nc(N4CCCCC4)nc(N4CCCCC4)n3)cc2)c1 [Compound 181] | 60 µM | max.
CC(=NNc1nc(NCc2ccccc2)nc(Nc2ccccc2)n1)c1ccc([N+](=O)[O-])cc1 [Compound 182] | 70.4 µM | max.
